Assay: Phase I safety: adverse events, adverse drug reactions, DLTs in patients with advanced solid tumors
Type: in vivo, human
Conditions: for Adverse drug reactions: ALT increased / Adverse drug reactions: AST increased / Adverse drug reactions: Any events / Adverse drug reactions: Blood AP increased / Adverse drug reactions: Decreased appetite / Adverse drug reactions: Diarrhea / Adverse drug reactions: Dry skin / Adverse drug reactions: GGT increased / Adverse drug reactions: GI disorders / Adverse drug reactions: General disorders and administration site conditions / Adverse drug reactions: Hyperglycemia / Adverse drug reactions: Investigations / Adverse drug reactions: Metabolism and nutrition disorders / Adverse drug reactions: Nausea / Adverse drug reactions: Neutrophil count decreased / Adverse drug reactions: Pruritus / Adverse drug reactions: Pyrexia / Adverse drug reactions: Rash maculo-papular / Adverse drug reactions: Skin and SC tissue disorders / Adverse drug reactions: Stomatitis / Adverse drug reactions: Vomiting / Adverse drug reactions: WBC count decreased / Adverse events: ALT increased / Adverse events: AST increased / Adverse events: Any events / Adverse events: Blood AP increased / Adverse events: Decreased appetite / Adverse events: Diarrhea / Adverse events: Dry skin / Adverse events: GGT increased / Adverse events: GI disorders / Adverse events: General disorders and administration site conditions / Adverse events: Hyperglycemia / Adverse events: Investigations / Adverse events: Metabolism and nutrition disorders / Adverse events: Nausea / Adverse events: Neutrophil count decreased / Adverse events: Pruritus / Adverse events: Pyrexia / Adverse events: Rash maculo-papular / Adverse events: Skin and SC tissue disorders / Adverse events: Stomatitis / Adverse events: Vomiting / Adverse events: WBC count decreased: DEP n = 12
Description: This was a phase I, open-label, non-randomized, dose-escalating first-in-human study to evaluate the safety, pharmacokinetics, antitumor activity, pharmacodynamics, and pharmacogenomics of TAS-117 in patients with advanced solid tumors. The study had three phases: a dose escalation phase (DEP), a regimen modification phase (RMP), and a safety assessment phase (SAP). The treatment cycle on each regimen lasted 21 days. The DEP used an accelerated titration and 3 + 3 design. TAS-117 was administered orally once daily (QD) on an empty stomach (1 h before or 2 h after a meal). Dosing was determined based on a 4-week repeated oral-dose toxicology study in monkeys (data on file, Taiho Pharmaceutical Co., Ltd.); the highest non-severely toxic dose was 1.2 mg/kg/day, which was converted to 3.84 mg/body/day, or 2.4 mg/m^2. Therefore, the starting dose was determined to be ≤ 2.4 mg/m^2. At dose level 1, TAS-117 was administered at 2 mg QD (Day − 2), and the dose was increased to 4 mg QD after 2 days (Day 1). The RMP was conducted according to a 3 + 3 design. During this phase, the dose regimen was changed from QD administration to intermittent dosing of daily TAS-117 with 4 days on/3 days off. TAS-117 was administered on an empty stomach. Dose-limiting toxicities (DLTs) were evaluated in Cycle 1 of the DEP and RMP. […] The RD and regimen for the SAP were determined based on the safety, pharmacokinetics, pharmacodynamics, and antitumor activity profile determined in the DEP and RMP. During the SAP, the safety and preliminary efficacy profiles of TAS-117 were assessed at the RD and recommended regimen. Three cohorts were included in this assessment. Cohort 1 included patients with endometrial cancer with a PIK3CA mutation; cohort 2 included patients with endometrial cancer with an AKT1 mutation, AKT1 amplification, or AKT2 amplification; and cohort 3 included patients with ovarian clear cell carcinoma.
The primary endpoints were the proportion of patients who experienced DLTs in Cycle 1 of the DEP and RMP and the incidence of adverse events (AEs) and adverse drug reactions (ADRs) in the SAP. AEs and ADRs were coded using the Medical Dictionary for Regulatory Activities (MedDRA; version 24.1) and graded according to the National Cancer Institute Common Terminology Criteria for Adverse Events (CTCAE; version 4.03). Secondary endpoints were pharmacokinetic findings, changes in the ratio of phosphorylated PRAS40 (pPRAS40)/total PRAS40 from baseline, efficacy, and pharmacogenomics findings.

Structure (SMILES): C[C@]1(O)C[C@@](N)(c2ccc(-c3nc4n(c3-c3ccccc3)COc3ccncc3-4)cc2)C1 [TAS-117]
- Grade 2 maculopapular rash requiring study interruption (DEP dose level 4 (24 mg QD)): All patients
- Adverse drug reactions: ALT increased (All grade): 1 (8.3) n (%)
- Adverse drug reactions: AST increased (All grade): 1 (8.3) n (%)
- Adverse drug reactions: Any events (All grade): 11 (91.7) n (%)
- Adverse drug reactions: Blood AP increased (All grade): 1 (8.3) n (%)
- Adverse drug reactions: Decreased appetite (All grade): 2 (16.7) n (%)
- Adverse drug reactions: Diarrhea (All grade): 1 (8.3) n (%)
- Adverse drug reactions: Dry skin (All grade): 0 (0.0) n (%)
- Adverse drug reactions: GGT increased (All grade): 1 (8.3) n (%)
- Adverse drug reactions: GI disorders (All grade): 4 (33.3) n (%)
- Adverse drug reactions: General disorders and administration site conditions (All grade): 2 (16.7) n (%)
- Adverse drug reactions: Hyperglycemia (All grade): 4 (33.3) n (%)
- Adverse drug reactions: Investigations (All grade): 5 (41.7) n (%)
- Adverse drug reactions: Metabolism and nutrition disorders (All grade): 5 (41.7) n (%)
- Adverse drug reactions: Nausea (All grade): 1 (8.3) n (%)
- Adverse drug reactions: Neutrophil count decreased (All grade): 3 (25.0) n (%)
- Adverse drug reactions: Pruritus (All grade): 1 (8.3) n (%)
- Adverse drug reactions: Pyrexia (All grade): 1 (8.3) n (%)
- Adverse drug reactions: Rash maculo-papular (All grade): 9 (75.0) n (%)
- Adverse drug reactions: Skin and SC tissue disorders (All grade): 11 (91.7) n (%)
- Adverse drug reactions: Stomatitis (All grade): 3 (25.0) n (%)
- Adverse drug reactions: Vomiting (All grade): 2 (16.7) n (%)
- Adverse drug reactions: WBC count decreased (All grade): 3 (25.0) n (%)
- Adverse events: ALT increased (All grade): 3 (25.0) n (%)
- Adverse events: AST increased (All grade): 3 (25.0) n (%)
- Adverse events: Any events (All grade): 11 (91.7) n (%)
- Adverse events: Blood AP increased (All grade): 2 (16.7) n (%)
- Adverse events: Decreased appetite (All grade): 5 (41.7) n (%)
- Adverse events: Diarrhea (All grade): 3 (25.0) n (%)
- Adverse events: Dry skin (All grade): 0 (0.0) n (%)
- Adverse events: GGT increased (All grade): 2 (16.7) n (%)
- Adverse events: GI disorders (All grade): 7 (58.3) n (%)
- Adverse events: General disorders and administration site conditions (All grade): 5 (41.7) n (%)
- Adverse events: Hyperglycemia (All grade): 4 (33.3) n (%)
- Adverse events: Investigations (All grade): 6 (50.0) n (%)
- Adverse events: Metabolism and nutrition disorders (All grade): 9 (75.0) n (%)
- Adverse events: Nausea (All grade): 2 (16.7) n (%)
- Adverse events: Neutrophil count decreased (All grade): 3 (25.0) n (%)
- Adverse events: Pruritus (All grade): 1 (8.3) n (%)
- Adverse events: Pyrexia (All grade): 1 (8.3) n (%)
- Adverse events: Rash maculo-papular (All grade): 9 (75.0) n (%)
- Adverse events: Skin and SC tissue disorders (All grade): 11 (91.7) n (%)
- Adverse events: Stomatitis (All grade): 3 (25.0) n (%)
- Adverse events: Vomiting (All grade): 3 (25.0) n (%)
- Adverse events: WBC count decreased (All grade): 3 (25.0) n (%)
- Adverse drug reactions: ALT increased (≥ Grade 3): 0 (0.0) n (%)
- Adverse drug reactions: AST increased (≥ Grade 3): 0 (0.0) n (%)
- Adverse drug reactions: Any events (≥ Grade 3): 3 (25.0) n (%)
- Adverse drug reactions: Blood AP increased (≥ Grade 3): 0 (0.0) n (%)
- Adverse drug reactions: Decreased appetite (≥ Grade 3): 0 (0.0) n (%)
- Adverse drug reactions: Diarrhea (≥ Grade 3): 0 (0.0) n (%)
- Adverse drug reactions: Dry skin (≥ Grade 3): 0 (0.0) n (%)
- Adverse drug reactions: GGT increased (≥ Grade 3): 0 (0.0) n (%)
- Adverse drug reactions: GI disorders (≥ Grade 3): 0 (0.0) n (%)
- Adverse drug reactions: General disorders and administration site conditions (≥ Grade 3): 0 (0.0) n (%)
- Adverse drug reactions: Hyperglycemia (≥ Grade 3): 2 (16.7) n (%)
- Adverse drug reactions: Investigations (≥ Grade 3): 1 (8.3) n (%)
- Adverse drug reactions: Metabolism and nutrition disorders (≥ Grade 3): 2 (16.7) n (%)
- Adverse drug reactions: Nausea (≥ Grade 3): 0 (0.0) n (%)
- Adverse drug reactions: Neutrophil count decreased (≥ Grade 3): 0 (0.0) n (%)
- Adverse drug reactions: Pruritus (≥ Grade 3): 0 (0.0) n (%)
- Adverse drug reactions: Pyrexia (≥ Grade 3): 0 (0.0) n (%)
- Adverse drug reactions: Rash maculo-papular (≥ Grade 3): 0 (0.0) n (%)
- Adverse drug reactions: Skin and SC tissue disorders (≥ Grade 3): 0 (0.0) n (%)
- Adverse drug reactions: Stomatitis (≥ Grade 3): 0 (0.0) n (%)
- Adverse drug reactions: Vomiting (≥ Grade 3): 0 (0.0) n (%)
- Adverse drug reactions: WBC count decreased (≥ Grade 3): 1 (8.3) n (%)
- Adverse events: ALT increased (≥ Grade 3): 0 (0.0) n (%)
- Adverse events: AST increased (≥ Grade 3): 1 (8.3) n (%)
- Adverse events: Any events (≥ Grade 3): 3 (25.0) n (%)
- Adverse events: Blood AP increased (≥ Grade 3): 1 (8.3) n (%)
- Adverse events: Decreased appetite (≥ Grade 3): 0 (0.0) n (%)
- Adverse events: Diarrhea (≥ Grade 3): 0 (0.0) n (%)
- Adverse events: Dry skin (≥ Grade 3): 0 (0.0) n (%)
- Adverse events: GGT increased (≥ Grade 3): 1 (8.3) n (%)
- Adverse events: GI disorders (≥ Grade 3): 0 (0.0) n (%)
- Adverse events: General disorders and administration site conditions (≥ Grade 3): 0 (0.0) n (%)
- Adverse events: Hyperglycemia (≥ Grade 3): 2 (16.7) n (%)
- Adverse events: Investigations (≥ Grade 3): 3 (25.0) n (%)
- Adverse events: Metabolism and nutrition disorders (≥ Grade 3): 2 (16.7) n (%)
- Adverse events: Nausea (≥ Grade 3): 0 (0.0) n (%)
- Adverse events: Neutrophil count decreased (≥ Grade 3): 0 (0.0) n (%)
- Adverse events: Pruritus (≥ Grade 3): 0 (0.0) n (%)
- Adverse events: Pyrexia (≥ Grade 3): 0 (0.0) n (%)
- Adverse events: Rash maculo-papular (≥ Grade 3): 0 (0.0) n (%)
- Adverse events: Skin and SC tissue disorders (≥ Grade 3): 0 (0.0) n (%)
- Adverse events: Stomatitis (≥ Grade 3): 0 (0.0) n (%)
- Adverse events: Vomiting (≥ Grade 3): 0 (0.0) n (%)
- Adverse events: WBC count decreased (≥ Grade 3): 1 (8.3) n (%)
- Recommended dose (RD) (QD dosing, patients with advanced or metastatic solid tumors): 16 mg
- DLTs (RMP dose level 4 (24 mg), intermittent administration): No DLTs
